Test results published in US7375080B1, “Immobilized lactoferrin (Im-LF) antimicrobial agents and uses thereof” (priority 1999, dated 2008).
Where two headings read alike, the source gives them in different places.

How the values were obtained:
[1] = tested on: E. coli serotype O157:H7 (strain ATCC43895); format: cell-based
[2] = tested on: E. coli O157:H7 strain ATCC43895; assay: Microbial adhesion assay: detachment of 3H-thymidine labeled bacteria from beef tissue by wash; format: cell-based

SMILES | GROWTH (%) [1] | % BACTERIAL CELLS DETACHED IN 1-MINUTE [2] | % BACTERIAL CELLS DETACHED IN 1-MINUTE ([2]; Lean tissue (beef)) | % BACTERIAL CELLS DETACHED IN 1-MINUTE ([2]; Surface tissue (neck) (beef))
O=C(O)CC(O)(CC(=O)O)C(=O)O [0.001 M citric acid, citric acid] | 103% |  |  | 
[Cl-].[Na+] [0.1 M sodium chloride, sodium chloride] | 100% |  |  | 
O=C([O-])O.[Na+] [0.01 M sodium bicarbonate, sodium bicarbonate] | 112% |  |  | 
CC(O)C(=O)O (stereo not drawn) [Lactic acid (2%), Lactic acid] |  | 68% | 75% | 62%
